A word on the inhibition: it is the relative decrease from the control value, in per cent. By IC50 is commonly meant the midpoint of a concentration-inhibition curve. Higher therefore signals weaker potency in that assay. A word on the clearance: it is a measure of how efficiently the substance is removed, as volume per time. Higher therefore signals efficient removal. A word on the EC50: it is the concentration giving half of the maximal effect. A lower EC50 goes with greater potency.

Data set [1] deals with MIA PaCa-2. Put plainly: Induction of apoptosis in human MIA PaCa-2 cells assessed as early apoptotic cells at 1 uM incubated for 72 hrs by APC-Annexin-V/7-AAD staining based flow cytometry (reference value: 1.26%). Format: functional. On the technique in general: A flow cytometer gives signals particle by particle.
The nature of data set [2]: Hepatotoxicity in female NSG mouse xenografted with human RPMI-8226 cells assessed as serum AST level at 3 mg/kg, ip administered 3 times a week for 26 days and measured 48 hrs post last dose (reference value: 84 to 229 IU/L). The data set is classed as toxicity, organism-based. The note with it: in vivo, 672 h, time 28 day.
A short description of data set [3]: Hepatotoxicity in female NSG mouse xenografted with human RPMI-8226 cells assessed as foci of bile ductular/oval cell proliferation at 3 mg/kg, ip administered 3 times a week for 26 days and measured 48 hrs post last dose by H and E staining based assay. The data set is classed as toxicity, organism-based, Bile duct. To be noted: in vivo, 672 h, time 28 day.
For data set [4], the system named is MIA PaCa-2. Description: Induction of apoptosis in human MIA PaCa-2 cells assessed as necrotic cells at 1 uM incubated for 72 hrs by APC-Annexin-V/7-AAD staining based flow cytometry (reference value: 0.75%). The data set is classed as functional.
A short description of data set [5]: Cytotoxicity against wild type mouse normal ductal organoid [N(10128)] at 1 uM incubated for 72 hrs by CellTiter-Glo luminescence based analysis. The data set is classed as toxicity, tissue-based. Background: In ATP-based viability assays light output follows the ATP content of the culture.
Data set [6] can be described thus: Hepatotoxicity in male NSG mouse xenografted with human RPMI-8226 cells assessed as foci of necrosis at 3 mg/kg, ip administered 3 times a week for 26 days and measured 48 hrs post last dose by H and E staining based assay. Format: toxicity, organism-based. The note with it: in vivo, 672 h, time 28 day.
The subject of data set [7] is HCT-116. Description: Induction of apoptosis in human HCT-116 cells at 1 uM incubated for 72 hrs by APC-Annexin-V/7-AAD staining based flow cytometry relative to control. The data set is classed as functional.
Data set [8] concerns MIA PaCa-2. Description: Induction of apoptosis in human MIA PaCa-2 cells at 1 uM incubated for 72 hrs by APC-Annexin-V/7-AAD staining based flow cytometry relative to control. Format: functional.
Data set [9] is described as follows: Hepatotoxicity in male NSG mouse xenografted with human RPMI-8226 cells assessed as single-cell necrosis at 3 mg/kg, ip administered 3 times a week for 26 days and measured 48 hrs post last dose by H and E staining based assay. The data set is classed as toxicity, organism-based. To be noted: in vivo, 672 h, time 28 day.
A short description of data set [10]: Metabolic stability in CD-1 mouse liver microsomes assessed as compound remaining incubated for 45 mins in presence of NADPH by LC-MS/MS analysis. The data set is classed as ADME, Microsome. To be noted: 0.75 h. For orientation: Liver microsomes are vesicles of endoplasmic reticulum, rich in cytochrome P450 enzymes.
The nature of data set [11]: Toxicity in NSG mouse xenografted with human MIA PaCa-2 cells assessed as appearance of skin lesions at 3 mg/kg, ip administered 3 times a week for 26 days and measured daily. The note with it: in vivo, time 26 day. Format: organism-based.
A short description of data set [12]: Cytotoxicity against human IMR-90 cells assessed as inhibition of cell growth at 360 nM incubated for 72 hrs by MTS assay relative to control. Format: toxicity, cell-based.
The target in the next data set is Cytochrome P450 3A4 (Homo sapiens, UniProt P08684). Description: Inhibition of CYP3A4 (unknown origin). The data set is classed as ADME.
The nature of data set [13]: Plasma clearance in Sprague-Dawley rat at 3 mg/kg, iv measured for 24 hrs by LC-MS/MS analysis. Format: ADME, organism-based.
Data set [14] can be described thus: Toxicity in NSG mouse xenografted with human MIA PaCa-2 cells assessed as morbidity at 3 mg/kg, ip administered 3 times a week for 26 days and measured daily. The data set is classed as organism-based. The note with it: in vivo, time 26 day.
Data set [15] can be described thus: Toxicity in NSG mouse xenografted with human MIA PaCa-2 cells assessed as weight loss at 3 mg/kg, ip administered 3 times a week for 26 days and measured daily. Format: organism-based. To be noted: in vivo, time 26 day.
Data set [16] concerns MIA PaCa-2. Put plainly: cells. The note with it: Homo sapiens, MIA PaCa-2, 72 h.
Data set [17] can be described thus: Hepatotoxicity in female NSG mouse xenografted with human RPMI-8226 cells assessed as inflammatory infiltrates at 3 mg/kg, ip administered 3 times a week for 26 days and measured 48 hrs post last dose by H and E staining based assay. The data set is classed as toxicity, organism-based. The note with it: in vivo, 672 h, time 28 day.
The target in data set [18] is T1, Ras-related protein Rap-1A (Homo sapiens) (UniProt P62834).
T1 sequence (whole entry): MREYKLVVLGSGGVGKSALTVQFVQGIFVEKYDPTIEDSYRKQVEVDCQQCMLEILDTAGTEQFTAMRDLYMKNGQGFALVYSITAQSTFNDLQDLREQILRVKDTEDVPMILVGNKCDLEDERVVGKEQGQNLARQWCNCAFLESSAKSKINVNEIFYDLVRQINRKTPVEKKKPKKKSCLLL
Description: Inhibition of RAP-1A prenylation in human MIA PaCa-2 cells incubated for 48 hrs by Western blot analysis. The data set is classed as cell-based. To be noted: dose 10-1000 nM.

Another data set addresses Cytochrome P450 2C9 (Homo sapiens, UniProt P11712). Put plainly: Inhibition of CYP2C9 (unknown origin). The data set is classed as ADME.
Data set [19] concerns HCT-116. Description: Induction of apoptosis in human HCT-116 cells assessed as live cells at 1 uM incubated for 72 hrs in presence of geranylgeraniol by APC-Annexin-V/7-AAD staining based flow cytometry (reference value: 95.3%). Format: functional.

Chain of Cytochrome P450 3A4 (P08684 whole entry): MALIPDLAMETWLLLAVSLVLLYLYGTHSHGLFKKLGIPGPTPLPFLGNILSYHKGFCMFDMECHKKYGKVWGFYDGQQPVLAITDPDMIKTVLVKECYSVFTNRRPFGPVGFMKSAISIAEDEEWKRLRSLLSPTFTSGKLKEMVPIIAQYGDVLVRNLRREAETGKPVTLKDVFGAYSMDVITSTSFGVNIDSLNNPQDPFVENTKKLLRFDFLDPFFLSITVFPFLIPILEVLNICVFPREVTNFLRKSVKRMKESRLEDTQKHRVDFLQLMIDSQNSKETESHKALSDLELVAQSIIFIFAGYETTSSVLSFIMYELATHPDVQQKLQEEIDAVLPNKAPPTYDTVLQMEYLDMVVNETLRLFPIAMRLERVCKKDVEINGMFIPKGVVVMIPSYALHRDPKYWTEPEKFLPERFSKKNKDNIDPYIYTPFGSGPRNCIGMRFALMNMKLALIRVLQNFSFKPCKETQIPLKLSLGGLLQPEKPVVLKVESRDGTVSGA
Chain of Cytochrome P450 2C9 (P11712 whole entry): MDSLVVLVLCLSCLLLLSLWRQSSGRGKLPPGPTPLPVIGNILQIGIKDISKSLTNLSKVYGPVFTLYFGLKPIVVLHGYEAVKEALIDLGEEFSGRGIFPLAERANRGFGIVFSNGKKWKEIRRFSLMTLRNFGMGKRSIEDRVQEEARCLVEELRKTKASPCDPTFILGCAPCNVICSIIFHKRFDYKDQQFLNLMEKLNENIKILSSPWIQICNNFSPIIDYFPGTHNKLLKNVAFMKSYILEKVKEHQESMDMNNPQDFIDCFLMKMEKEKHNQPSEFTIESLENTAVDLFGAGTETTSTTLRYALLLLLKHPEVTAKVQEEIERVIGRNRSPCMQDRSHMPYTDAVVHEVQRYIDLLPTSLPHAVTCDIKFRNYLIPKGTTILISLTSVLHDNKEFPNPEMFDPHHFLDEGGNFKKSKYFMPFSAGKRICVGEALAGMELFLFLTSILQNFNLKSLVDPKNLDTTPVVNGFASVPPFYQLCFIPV

`Cn1ncc2c(NC(P(=O)(O)O)P(=O)(O)O)nc(-c3cccc(C(=O)Nc4ccc(C(F)(F)F)cc4)c3)nc21`: the Activity with MIA PaCa-2 [1] was 13.5%; in [2] it was 199 IU/L; in [3] it was “Non-Toxic”; in the data set with MIA PaCa-2 [4], 13.4%; in data set [5], “Non-Toxic”; in data set [6] it was “Non-Toxic”. Moreover, the Activity is roughly 50% in the data set with HCT-116 [7]; roughly 50% with MIA PaCa-2 [8]; “Non-Toxic” in [9]; “Non-Toxic” in data set [11]; “Non-Toxic” in data set [14]; “Non-Toxic” in data set [15]. The Activity entry in data set [17] is “Non-Toxic”; in the data set on HCT-116 [19], 93.2%. The Stability in [10] stood at 103%. Further, the inhibition at 72 h, 0.36 µM in data set [12] is 0%. The half-inhibitory concentration (IC50) against Cytochrome P450 3A4 and against Cytochrome P450 2C9 was greater than 40 µM in each case. The molecule also came in with a clearance in [13] of 0.2 mL/min/kg. In the data set on MIA PaCa-2 [16], this molecule displayed an EC50 of 0.79 µM. Also, the inhibition entry in [18] is “Dose-Dependent Effect”.

The record behind these values is ChEMBL document CHEMBL5375954, “Discovery and Evaluation of C6-Substituted Pyrazolopyrimidine-Based Bisphosphonate Inhibitors of the Human Geranylgeranyl Pyrophosphate Synthase and Evaluation of Their Antitumor Efficacy in Multiple Myeloma, Pancreatic Ductal Adenocarcinoma, and Colorectal Cancer” (J Med Chem, 2023).
